Molecular target: T1, full-length FANCJ helicase (Homo sapiens, UniProt Q9BX63)
T1 construct: Full length recombinant WRN [18], BLM [19], and FANCJ [20] proteins were purified from insect cells; made in house; host or cells: insect cells
T1 sequence (Q9BX63 1-1249): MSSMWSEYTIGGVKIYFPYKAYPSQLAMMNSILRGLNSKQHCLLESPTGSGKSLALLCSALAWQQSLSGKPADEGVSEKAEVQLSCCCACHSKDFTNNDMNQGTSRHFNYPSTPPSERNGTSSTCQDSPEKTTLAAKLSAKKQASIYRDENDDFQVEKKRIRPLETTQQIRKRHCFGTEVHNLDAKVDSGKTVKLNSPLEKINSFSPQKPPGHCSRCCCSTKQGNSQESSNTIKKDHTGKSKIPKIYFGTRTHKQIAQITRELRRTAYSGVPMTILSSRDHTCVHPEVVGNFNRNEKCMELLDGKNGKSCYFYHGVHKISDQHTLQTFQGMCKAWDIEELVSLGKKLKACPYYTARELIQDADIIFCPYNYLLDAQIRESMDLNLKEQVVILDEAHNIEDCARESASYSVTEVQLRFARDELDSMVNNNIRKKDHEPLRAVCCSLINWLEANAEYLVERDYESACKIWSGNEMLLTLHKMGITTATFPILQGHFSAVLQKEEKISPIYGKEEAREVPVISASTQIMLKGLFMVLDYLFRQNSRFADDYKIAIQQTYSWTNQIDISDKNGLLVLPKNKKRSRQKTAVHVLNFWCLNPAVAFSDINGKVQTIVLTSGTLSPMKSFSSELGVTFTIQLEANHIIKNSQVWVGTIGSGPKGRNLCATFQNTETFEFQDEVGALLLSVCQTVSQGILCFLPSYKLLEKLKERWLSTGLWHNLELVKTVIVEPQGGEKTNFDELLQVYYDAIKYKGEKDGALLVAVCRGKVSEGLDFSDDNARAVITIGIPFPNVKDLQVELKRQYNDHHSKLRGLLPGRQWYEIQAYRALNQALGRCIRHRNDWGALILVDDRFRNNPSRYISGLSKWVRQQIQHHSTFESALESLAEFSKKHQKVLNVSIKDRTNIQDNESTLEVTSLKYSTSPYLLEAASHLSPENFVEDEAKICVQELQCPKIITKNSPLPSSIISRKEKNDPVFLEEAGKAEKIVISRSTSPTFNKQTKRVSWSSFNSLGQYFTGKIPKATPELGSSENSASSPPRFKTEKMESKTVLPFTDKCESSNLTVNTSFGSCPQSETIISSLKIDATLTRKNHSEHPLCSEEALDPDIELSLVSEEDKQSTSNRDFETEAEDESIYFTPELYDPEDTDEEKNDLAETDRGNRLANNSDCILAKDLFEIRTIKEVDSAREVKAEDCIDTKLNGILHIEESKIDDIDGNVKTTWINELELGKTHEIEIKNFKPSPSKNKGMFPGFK
Test: Radiometric helicase assay, full-length FANCJ
Assay type: biochemical
Conditions: for IC50: full-length FANCJ 5 nM, FORKR 0.5 nM
Description: Fifteen μL of reaction buffer was added to a microcentrifuge tube followed by the addition of 1 μL of selected compounds (0.5–100 μM final concentration) or DMSO. One μL of WRN (full length), RECQ1, FANCJ, BLM or control was added to each reaction and incubated at room temperature for 15 min. Three μL of substrate (0.5 nM FORKR and 2 mM ATP final concentrations) were added to all reactions which were incubated at 37°C for 15 min. Reactions were stopped with the addition of 20 μL of 2X STOP dye containing EDTA, glycerol, bromphenol blue and xylene cyanol. Samples were electrophoresed for 1.5 hr at 200 V on a 12% non-denaturing PAGE gel in 1X TBE Buffer.
Three compounds identified from the cherry-picked set were tested for their effects on WRN exonuclease activity (20 nM) on the FORKR DNA substrate (1 nM) as well as DNA unwinding by full-length BLM (0.1 nM) and FANCJ (5 nM) helicases, which belong to the same Superfamily 2 as WRN [25], to assess their specificity for inhibition of WRN-catalyzed unwinding of the FORKR DNA substrate (0.5 nM). […] Nonetheless, these two compounds were also further tested in cell-based assays to assess their effects on proliferation.
Supplementary file pone.0210525.s005.TIF: S5 Fig Specificity of select WRN inhibitors for inhibition of other human helicases. (A) Quantitation of full-length BLM helicase (0.1 nM) activity on the FORKR DNA substrate (0.5 nM) with increasing concentration of each compound (0–100 μM). (B) Quantitation of full-length FANCJ (5 nM) helicase activity on the FORKR DNA substrate (0.5 nM) with increasing concentration of each compound (0–100 μM). (TIF) Click here for additional data file.

| Structure (SMILES) | IC50 for WRN helicase inhibition fold less than that observed for FANCJ (WRN vs FANCJ) [fold] | IC50 [µM] |
| --- | --- | --- |
| Cc1ccc(-c2csc(NS(=O)(=O)c3cccc(F)c3)n2)o1 [MLS002251300-02] | 6 | 28.5 ± 2 |
| COc1ccc2nc(O)c(-c3noc(-c4ccc(F)cc4)n3)cc2c1 [NCGC00029283-02] | – | 3.4 ± 0.5 |
| COc1ccc2nc(O)c(-c3noc(-c4ccccc4)n3)cc2c1 [NCGC00063279-02] | – | 13.9 ± 2.6 |
